Data taken from ChEMBL document CHEMBL1255179, “Fatty acid synthase inhibitors of phenolic constituents isolated from Garcinia mangostana” (Bioorg Med Chem Lett, 2010).

The compounds below were run against Fatty acid synthase (Gallus gallus) (UniProt P12276) (assay: Inhibition of FAS).
Sequence of Fatty acid synthase (Gallus gallus) (P12276 whole entry, looked up): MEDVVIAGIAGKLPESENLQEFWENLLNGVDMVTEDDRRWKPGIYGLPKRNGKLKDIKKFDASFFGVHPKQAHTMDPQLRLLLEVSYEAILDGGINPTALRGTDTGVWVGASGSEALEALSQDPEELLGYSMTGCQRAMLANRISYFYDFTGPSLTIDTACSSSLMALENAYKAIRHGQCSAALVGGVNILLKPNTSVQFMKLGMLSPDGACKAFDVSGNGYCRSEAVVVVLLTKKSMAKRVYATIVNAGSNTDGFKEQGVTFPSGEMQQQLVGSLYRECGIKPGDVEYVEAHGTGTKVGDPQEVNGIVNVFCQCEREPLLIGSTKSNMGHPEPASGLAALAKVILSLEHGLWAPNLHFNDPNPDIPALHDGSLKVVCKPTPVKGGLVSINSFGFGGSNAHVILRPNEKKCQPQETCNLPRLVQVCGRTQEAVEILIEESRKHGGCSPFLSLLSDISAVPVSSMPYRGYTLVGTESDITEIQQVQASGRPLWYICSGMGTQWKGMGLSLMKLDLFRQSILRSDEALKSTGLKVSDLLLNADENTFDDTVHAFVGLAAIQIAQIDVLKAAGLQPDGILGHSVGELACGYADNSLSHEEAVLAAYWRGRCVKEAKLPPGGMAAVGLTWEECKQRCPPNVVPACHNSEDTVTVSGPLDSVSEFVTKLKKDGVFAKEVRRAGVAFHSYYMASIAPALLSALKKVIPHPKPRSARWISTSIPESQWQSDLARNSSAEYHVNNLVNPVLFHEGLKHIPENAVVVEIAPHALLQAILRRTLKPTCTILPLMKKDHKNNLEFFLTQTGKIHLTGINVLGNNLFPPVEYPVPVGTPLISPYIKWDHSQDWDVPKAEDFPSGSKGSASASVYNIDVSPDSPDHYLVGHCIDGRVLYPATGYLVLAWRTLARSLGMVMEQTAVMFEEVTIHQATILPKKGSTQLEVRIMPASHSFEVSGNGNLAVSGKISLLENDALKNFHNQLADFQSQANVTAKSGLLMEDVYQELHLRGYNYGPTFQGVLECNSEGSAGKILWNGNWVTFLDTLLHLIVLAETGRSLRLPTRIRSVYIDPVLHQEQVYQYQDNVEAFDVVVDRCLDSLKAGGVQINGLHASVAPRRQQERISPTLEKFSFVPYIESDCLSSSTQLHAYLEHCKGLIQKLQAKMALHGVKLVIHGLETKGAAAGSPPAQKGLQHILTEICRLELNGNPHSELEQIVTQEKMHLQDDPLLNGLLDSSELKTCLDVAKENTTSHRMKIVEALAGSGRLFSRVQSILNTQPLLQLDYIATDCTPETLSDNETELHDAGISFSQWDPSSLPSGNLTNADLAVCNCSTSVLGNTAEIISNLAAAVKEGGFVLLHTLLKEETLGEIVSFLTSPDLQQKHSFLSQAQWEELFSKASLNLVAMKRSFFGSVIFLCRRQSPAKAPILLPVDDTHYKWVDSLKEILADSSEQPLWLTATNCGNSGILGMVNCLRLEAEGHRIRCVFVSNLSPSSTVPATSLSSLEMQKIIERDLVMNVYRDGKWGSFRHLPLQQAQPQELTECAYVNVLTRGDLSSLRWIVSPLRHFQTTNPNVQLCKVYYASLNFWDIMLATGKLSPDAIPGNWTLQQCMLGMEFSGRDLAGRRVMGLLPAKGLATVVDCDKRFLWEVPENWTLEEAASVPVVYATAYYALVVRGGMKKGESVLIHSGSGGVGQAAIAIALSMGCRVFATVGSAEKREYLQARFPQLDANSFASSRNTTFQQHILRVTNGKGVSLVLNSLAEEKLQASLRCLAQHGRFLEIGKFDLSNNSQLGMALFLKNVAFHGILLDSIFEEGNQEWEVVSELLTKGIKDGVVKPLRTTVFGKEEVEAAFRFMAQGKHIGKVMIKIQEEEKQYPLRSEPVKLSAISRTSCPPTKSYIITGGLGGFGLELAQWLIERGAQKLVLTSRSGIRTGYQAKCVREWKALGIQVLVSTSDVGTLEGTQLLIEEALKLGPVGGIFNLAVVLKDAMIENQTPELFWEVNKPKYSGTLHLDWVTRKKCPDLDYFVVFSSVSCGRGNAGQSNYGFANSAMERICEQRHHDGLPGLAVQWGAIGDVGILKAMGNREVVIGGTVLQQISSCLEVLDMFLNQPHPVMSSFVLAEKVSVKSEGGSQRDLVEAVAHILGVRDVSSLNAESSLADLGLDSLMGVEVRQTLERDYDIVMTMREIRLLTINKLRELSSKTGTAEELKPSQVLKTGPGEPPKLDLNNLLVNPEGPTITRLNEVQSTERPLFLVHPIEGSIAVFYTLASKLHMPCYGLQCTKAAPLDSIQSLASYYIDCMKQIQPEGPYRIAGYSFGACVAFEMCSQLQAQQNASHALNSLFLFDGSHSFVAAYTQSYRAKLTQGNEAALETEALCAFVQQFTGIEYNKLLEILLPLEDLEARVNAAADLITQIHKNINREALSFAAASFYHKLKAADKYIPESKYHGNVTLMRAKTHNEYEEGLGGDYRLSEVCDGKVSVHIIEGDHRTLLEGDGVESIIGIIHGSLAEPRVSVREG

SMILES | IC50 [µM]
CC(C)=CCc1c(O)cc2oc3cc(O)c(O)c(CC=C(C)C)c3c(=O)c2c1O | 1.24
C[C@@H]1O[C@@H](O[C@@H]2C(=O)c3c(O)cc(O)cc3O[C@H]2c2cc(O)cc(O)c2)[C@H](O)[C@H](O)[C@H]1O [NEOSMITILBIN] | 49.2
O=C(O[C@@H]1Cc2c(O)cc(O)cc2O[C@@H]1c1cc(O)c(O)c(O)c1)c1cc(O)c(O)c(O)c1 [EPIGALOCATECHIN GALLATE] | 52
O=C(c1cc(O)cc(O)c1)c1c(O)cc(O)cc1O | 8.59
COc1cc2oc3cc(O)c(OC)c(CC=C(C)C)c3c(=O)c2c(O)c1CC=C(C)C | 24.8
COc1cc(CCCO)cc2cc(-c3ccc4c(c3)OCO4)oc12 [EGONOL] | 91.1

Now from value to compound:

IC50 [µM] | SMILES
41 | O=c1c2cc(O)ccc2oc2cc(O)cc(O)c12
40.6 | COc1c(O)cc2oc3cc4c(c(O)c3c(=O)c2c1CC=C(C)C)C=CC(C)(C)O4 [MANGOSTANIN]
17.9 | O=c1c2cc(O)c(O)cc2oc2cc(O)cc(O)c12
14.8 | O=C(c1cccc(O)c1)c1cc(O)c(O)c(O)c1
5.54 | COc1c(O)cc2oc3cc(O)c(CC=C(C)C)c(O)c3c(=O)c2c1CC=C(C)C [MANGOSTIN]
3.3 | CC(C)=CCc1c(O)cc2oc3c(CC=C(C)C)c(O)c(O)c(CC=C(C)C)c3c(=O)c2c1O [GARCINONE E]

Each compound was assayed against Fatty acid synthase (Gallus gallus) (UniProt P12276) (assay: Inhibition of FAS at 1000 uM).

SMILES | IC50 [µM]
Oc1cc(O)c2c(c1)O[C@@H](c1ccc(O)c(O)c1)[C@@H](O)C2 [(+)-EPICATECHIN] | > 1000
